Assay [1] has as its target T1, β-amyloid Aβ21–40 (C-terminal fragment of Aβ1–40) (Homo sapiens, UniProt P05067).
T1 construct: gene APP
The assay is described as follows: UV/Vis titration; ESI-MS […] adduct; also ThT aggregation. It is filed as binding.

Assay [2] deals with T1, β-amyloid Aβ21–40 (C-terminal fragment of Aβ1–40). The assay can be described thus: UV/Vis titration; ESI-MS […] adduct; also ThT aggregation and CD. Type of assay: binding.

T1 sequence (P05067 692-711): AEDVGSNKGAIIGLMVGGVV

As to `[Cl][Pt-2]1([Cl])[n+]2cccc3ccc4ccc[n+]1c4c32` [Pt-phen, (SP-4-2)-dichlorido(1,10-phenanthroline)platinum(II)], a half-maximal effect in assay [1] (EC50) was put at 49 ± 20 µM.

`[Cl][Pt-2]12[n+]3ccccc3-c3cccc([n+]31)-c1cccc[n+]12` [Pt-terpy, (SP-4-2)-chlorido(2,2′:6′,2′′-terpyridine)platinum(II) chloride] registered an EC50 in assay [2] of 68 ± 14 µM.

By EC50 is commonly meant the concentration needed to bring the measured effect to its halfway point. High values mean a need for much substance, low ones an effect from little substance.

The values are drawn from article PMC7998721, “A Comparative Study of the Effects of Platinum (II) Complexes on β-Amyloid Aggregation: Potential Neurodrug Applications” (International Journal of Molecular Sciences, 2021).
